Measured values: patent US20220380331A1, “TREATMENT OF CONDITIONS OF THE NERVOUS SYSTEM” (priority 2019, published 2022)

What was measured:
[1] = system: sensorimotor cortex (M1); experiment: Intracortical microstimulation (ICMS) mapping of HL and FL cortical movement representations; type: in vivo, rat
Experimental: FIG. […]): Perineuronal net inhibitor (PNNi) induces reorganisation of the sensorimotor map (M1) in intact rats. Using intracortical microstimulation (ICMS), mapping of the HL and FL cortical movement representations were used to investigate the functional organisation of the M1 of intact/sham animals after long-term treatment with the prospective plasticity enhancer, […] was performed at stereotaxic coordinates within a right hemisphere craniotomy 5 mm rostral/caudal to bregma (B) (A) 11 weeks post mid-thoracic laminectomy (Sham) or for age-controlled intact rats. Individual ICMS maps were combined to give the representative heat map per group illustrating the percentage of animals for each stereotaxic coordinate where hindlimb (HL; B-D) or forelimb (FL; K-M) movements were able to be elicited. A baseline HL and FL cortical map was generated for Lister Hooded rats (B, K; dotted outlines in B-D, K-M) to compare the functional plasticity of groups with sham surgery (C, L) and with chronic PNNi administration (D, M). Measurements for HL analysis (F-G) are illustrated in E). H) Average area (mm^2) of the HL representation reduced with PNNi treatment. […] Measurements for FL analysis (P-S) are illustrated in O). After PNNi treatment, FL movements were elicited in areas that are not associated with FL or HL movements (see right of the baseline HL map; white dotted outline K-M). […]

[2] = system: perineuronal nets (PNNs) in the ventral horn; experiment: Chronic PNNi treatment, immunohistochemistry of PNNs in the ventral horn 12 weeks post-injury; type: in vivo, rat; settings: T4-6 sections
Experimental: FIG. 15. Chronic PNNi treatment preferentially reduces expression of perineuronal nets (PNNs), labelled by key PNN components, in the ventral horn (VH). Rat spinal cord sections (T4-6) obtained at 12 weeks post-injury were stained and intensity was analysed in the VH. […] A transcardial perfusion (Gage et al., 2012) was then performed using sodium phosphate buffer (PB; 0.12 M sodium phosphate monobasic; 0.1 M NaOH; pH 7.4) followed by 4% paraformaldehyde (PFA; in PB; pH 7.4) for tissue fixation. The brain and spinal cord were dissected out, post-fixed in PFA (4%; 4° C.) overnight and cryoprotected in 30% sucrose solution (30% v/w sucrose in PB; 4° C.) until tissue saturation. The left brain hemisphere and appropriate spinal cord segments were excised and frozen in optimum temperature medium (OCT; Leica FSC 22 Frozen Section Media; Leica Biosystems) before storage at -80° C. until sectioning. […] Total number of neurones and the number of neurones surrounded by PNNs were quantified by two independent researchers, blinded to the study. Results were analysed with one-way ANOVA for statistical significance. […] Rat spinal cord sections (T4-6) obtained at 12 weeks post-injury were stained and intensity was analysed in the VH.

Cc1cc(=O)oc2cc(O)ccc12 [PNNi, 4-methylumbelliferone]
percentage of FL movements associated with areas previously eliciting HL movements ([1]; SCI plus long-term PNNi, sham control 4.27±1.56%): 23.9±8.01% | total area able to elicit HL movements ([1]; sham animals, long-term treatment): reduced the total area able to elicit HL movements | number of PNNs labelled by ACAN and WFA in the ventral horn [2]: partially decreases number of PNNs
